US11065234B2, “Estrogen receptor modulators” (Recurium IP Holdings, LLC, priority 2016, dated 2021)
pIC50: −log10 of the molar value.

Tests used:
MCF7 = test: Breast Cancer Cell Proliferation Assay (MCF-7); format: cell-based; conditions: Homo sapiens, 120 h; MCF7 cells, 5 days of compound exposure, Cell Titer-Glo
Method: Breast Cancer Cell Proliferation Assay (MCF-7)
MCF7 was expanded and maintained in the medium (Phenol red free DMEM/F12 (Hyclone SH30272.01) NEAA (Gibco11140-050) Na-pyruvate (Gibco 11360-070) and Re-stripped Charcoal stripped FBS (Gemini 100-119)). The cells were adjusted to a concentration of 3,000 cells per mL in the above media, and the cells were incubated (37° C., 5% CO2). The following day a 10 point, serial dilution of compounds was added to the cells at a final concentration ranging from 10-0.000005 μM for test compounds (17β-estradiol was used as a control). Additional cells were plated in 30 wells to serve as the day 1 (pretreatment) comparison. After 5 days of compound exposure, Cell Titer-Glo reagent was added to the cells and the relative luminescence units (RLUs) of each well was determined. Cell Titer-Glo was also added to 32 μL of medium without cells to obtain a background value. The plates were allowed to incubate at room temperature for 10 minutes to stabilize luminescent signal and the luminescence signal was recorded with EnSpire. The relative increase in cell number of each sample is determined as follows: (RLU sample-RLU background/RLU estrogen only treated cells-RLU background)×100=% inhibition.

ERα = target: T1, ERα (Homo sapiens, UniProt P03372); test: ER Degradation Determination by Western Blot; format: cell-based; conditions: MCF-7 cells, 10 μM, 18-24 hours
T1 construct: endogenous in cells; host or cells: MCF-7
T1 sequence (P03372 1-595): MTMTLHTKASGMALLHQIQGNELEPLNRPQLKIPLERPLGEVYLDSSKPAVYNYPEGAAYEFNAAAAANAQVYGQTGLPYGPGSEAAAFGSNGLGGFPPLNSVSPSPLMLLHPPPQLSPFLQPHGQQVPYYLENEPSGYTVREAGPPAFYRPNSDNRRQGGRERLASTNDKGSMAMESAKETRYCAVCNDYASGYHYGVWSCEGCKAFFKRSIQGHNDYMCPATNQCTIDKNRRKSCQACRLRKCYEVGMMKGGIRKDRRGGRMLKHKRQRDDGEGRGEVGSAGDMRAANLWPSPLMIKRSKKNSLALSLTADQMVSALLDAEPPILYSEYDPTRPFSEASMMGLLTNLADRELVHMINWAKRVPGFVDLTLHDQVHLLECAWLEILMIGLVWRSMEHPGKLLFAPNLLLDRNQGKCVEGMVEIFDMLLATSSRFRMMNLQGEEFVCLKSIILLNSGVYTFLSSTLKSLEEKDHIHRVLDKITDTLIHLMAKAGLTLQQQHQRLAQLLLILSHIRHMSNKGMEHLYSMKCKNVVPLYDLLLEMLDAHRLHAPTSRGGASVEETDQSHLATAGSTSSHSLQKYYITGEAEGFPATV
Method: ER Degradation Determination by Western Blot
MCF-7 cells are plated at 0.3 million cells/mL (3 mL/well) in 6-well plates in experiment media and incubated at 37° C., 5% CO2 for […]. Next day, 10× solution of compounds are made in DMSO and added the solution to the cells to achieve a final concentration of 10 μM. A DMSO control is included to enable a determination of the relative efficacy of test compounds. Fulvestrant is used as a positive control for ER-alpha degradation, and 4-OH tamoxifen as a control for receptor stabilization. After incubating cells with compounds for 18-24 hours, cell lysates are prepared (2× Cell lysis buffer:100 mM Tris, pH 8, 300 mM NaCl, 2% NP40, 1% Na deoxycholate, 0.04% SDS, 2 mM EDTA) and mixed thoroughly and incubated on ice. The protein concentration is quantified using BCA kit. […] The gel was then transferred onto a nitrocellulose membrane. […] GAPDH protein was used as an internal control.

[1] = Pharmacokinetic Determination (Rat PK); format: in vivo; conditions: plasma, female SD rats; for Vd: read-out: Vdss; for bioavailability: PO 10.0 mg/kg vs IV 3.0 mg/kg
Method: Example D Pharmacokinetic Determination
Grouping female SD rats weighing 200-300 g randomly to two groups; one group was administered with test compound at a dose of 3.0 mg/kg by intravenous injection, the other group was administered with test compound at a dose of 10.0 mg/kg by oral. The formulation for IV groups is DMSO/PEG400/150 mM glycine (pH 9) (5/10/85) and the formulation for PO groups is PEG400/PVP/Tween 80/0.5% CMC in water (9/0.5/0.5/90). After administering, blood samples of intravenous injection group were collected at time points of predose, 0.0833, 0.25, 0.5, 1, 2, 4, 8, 12 and 24 h; blood samples of oral group were collected at time points of predose, 0.25, 0.5, 1, 2, 4, 8, 12, and 24 h. Standard curve was plotted based on concentrations of the samples in a suitable range, the concentrations of test compounds in plasma samples were determined by using LC-MS/MS. Pharmacokinetic parameters were calculated according to drug concentration-time curve using a noncompartmental method by WinNonLin (Phoenix™, version 6.1) or other similar software.

| SMILES | pIC50 (MCF7) | ERα % degradation (ERα) | AUC(0-inf) ([1]; IV, 3.0 mg/kg) | clearance ([1]; IV, 3.0 mg/kg) | half-life ([1]; IV, 3.0 mg/kg) | Vd ([1]; IV, 3.0 mg/kg) | bioavailability [1] | AUC(0-inf) ([1]; PO, 10.0 mg/kg) | Cmax ([1]; PO, 10.0 mg/kg) | Tmax ([1]; PO, 10.0 mg/kg) | half-life ([1]; PO, 10.0 mg/kg) | melting point |
| --- | --- | --- | --- | --- | --- | --- | --- | --- | --- | --- | --- | --- |
| C[C@@H]1Cc2c([nH]c3ccccc23)[C@@H](c2c(F)cc(/C=C/C(=O)O)cc2F)N1CC(C)(C)F [AZD9496, (E)-3-(3,5-Difluoro-4-((1R,3R)2-(2-fluoro-2-methylpropyl)-3-methyl-2,3,4,9-tetrahydro-1H-pyrido[3,4b]indol-1-yl)phenyl)acrylic acid, reference compound] | ≥ 7.60 | A (A = ERα % degradation ≥80%) | 72 µM·h | 1.6 mL/min/kg | 7.8 h | 0.8 L/kg | 74% | 179 µM·h | 16.1 µM | 4 h | 6.4 h | – |
| C[C@@H]1Cc2c([nH]c3ccccc23)[C@@H](c2c(F)cc(/C=C/C(=O)O)cc2F)N1CC12CC(C1)C2 [Example 5A, (E)-3-(4-((1R,3R)-2-(Bicyclo[1.1.1]pentan-1-ylmethyl)-3-methyl-2,3,4,9-tetrahydro-1H-pyrido[3,4-b]indol-1-yl)-3,5-difluorophenyl)acrylic acid] | ≥ 7.60 | A (A = ERα % degradation ≥80%) | 67 µM·h | 1.7 mL/min/kg | 7.7 h | 1 L/kg | 82% | 185 µM·h | 10.8 µM | 2 h | 8.5 h | – |
| C[C@@H]1Cc2c([nH]c3ccccc23)[C@@H](c2c(F)cc(/C=C/C(=O)O)cc2F)N1[C@H]1CCOC1 [Example 8A, (E)-3-(3,5-Difluoro-4-((1R,3R)-3-methyl-2-((S)-tetrahydrofuran-3-yl)-2,3,4,9-tetrahydro-1H-pyrido[3,4-b]indol-1-yl)phenyl)acrylic acid] | 6.60 to 7.60 | A (A = ERα % degradation ≥80%) | 22 µM·h | 5.2 mL/min/kg | 3.2 h | 0.6 L/kg | 109% | 80 µM·h | 24.5 µM | 0.5 h | 2.1 h | – |

Further lines, results first:

| pIC50 (MCF7) | ERα % degradation (ERα) | AUC(0-inf) ([1]; IV, 3.0 mg/kg) | clearance ([1]; IV, 3.0 mg/kg) | half-life ([1]; IV, 3.0 mg/kg) | Vd ([1]; IV, 3.0 mg/kg) | bioavailability [1] | AUC(0-inf) ([1]; PO, 10.0 mg/kg) | Cmax ([1]; PO, 10.0 mg/kg) | Tmax ([1]; PO, 10.0 mg/kg) | half-life ([1]; PO, 10.0 mg/kg) | melting point | SMILES |
| --- | --- | --- | --- | --- | --- | --- | --- | --- | --- | --- | --- | --- |
| ≥ 7.60 | A (A = ERα % degradation ≥80%) | 96 µM·h | 1.2 mL/min/kg | 4.2 h | 0.48 L/kg | 88% | 283 µM·h | 33 µM | – | 3.5 h | – | C[C@@H]1Cc2c([nH]c3ccccc23)[C@@H](c2c(F)cc(/C=C/C(=O)O)cc2F)N1C12CC(C1)C2 [Example 11A, (E)-3-(4-((1R,3R)-2-(Bicyclo[1.1.1]pentan-1-yl)-3-methyl-2,3,4,9-tetrahydro-1H-pyrido[3,4-b]indol-1-yl)-3,5-difluorophenyl)acrylic acid] |
| 6.60 to 7.60 | B (B = ERα % degradation <80%) | – | – | – | – | – | – | – | – | – | – | C[C@@H]1Cc2c([nH]c3ccccc23)[C@@H](c2c(F)cc(/C=C/C(=O)O)cc2F)N1CC12CC(F)(C1)C2 [Example 14A, (E)-3-(3,5-Difluoro-4-((1R,3R)-2-((3-fluorobicyclo[1.1.1]pentan-1-yl)methyl)-3-methyl-2,3,4,9-tetrahydro-H-pyrido[3,4-b]indol-1-yl)phenyl)acrylic acid] |
| ≥ 7.60 | – | – | – | – | – | – | – | – | – | – | 128 to 130 °C | C[C@@H]1Cc2c([nH]c3ccc(F)cc23)[C@@H](c2c(F)cc(/C=C/C(=O)O)cc2F)N1CC(C)(C)F [Example 21A, (E)-3-(3,5-Difluoro-4-((1R,3R)-6-fluoro-2-(2-fluoro-2-methylpropyl)-3-methyl-2,3,4,9-tetrahydro-1H-pyrido[3,4-b]indol-1-yl)phenyl)acrylic acid] |
| ≥ 7.60 | A (A = ERα % degradation ≥80%) | – | – | – | – | – | – | – | – | – | – | C[C@]12CC[C@@H]3c4ccc(O)cc4C[C@@H](CCCCCCCCC[S+]([O-])CCCC(F)(F)C(F)(F)F)[C@H]3[C@@H]1CC[C@@H]2O (stereo partly shown) [fulvestrant, reference compound] |
